In patent US10575543B2, “Acetaldehyde precursors” (Firmenich SA, priority 2014, dated 2020):

Tests used:
[1] = Assessment of hydrolysis rate under spray drying feed conditions (pH 8.0 buffer/limonene emulsion); format: physicochemical; conditions: pH 8.0 phosphate buffer; for t50 at pH 8.0: precursor dissolved in limonene, emulsion, time to 50% of maximum absorbance
Description: Acetaldehyde precursors suitable for rendering into dry powders must avoid releasing significant levels of acetaldehyde during various stages of processing. In particular they should resist hydrolysis during the preparation of a spray drying feed emulsion, which can be neutral to basic pH and can contain a significant volume fraction of an oil phase.
A pH 8.0 buffer solution was prepared by adding 49.92 g disodium phosphate heptahydrate (CAS 7782-85-6) and 1.93 g monosodium phosphate (CAS 7558-80-7) to 1 L of deionised water. Aliquots of 0.20 g the Example 1-2 preparations were dissolved in 0.8 g of limonene (CAS 5989-25-7) added to 10 g of the buffer solution within a 30 mL Erlenmeyer flask containing a stir bar. The concentration of acetaldehyde in solution was monitored as a function of time using a UV/V is spectrometer probe measuring absorbance at 276 nm. Stirring was periodically stopped to allow oil droplets to rise to the surface and collect an unobscured absorbance reading of the aqueous solution. Release followed mixed zero and first order kinetics. t50 (the time to 50% of the maximum absorbance) values are reported in Table 2. […] Comparative Sample 1 has t50 of 2.1 minutes, which is so short that a person skilled in the art would consider this compound at risk of experiencing a problematic degree of hydrolysis during processing. Example 1 has a much longer t50 value and released acetaldehyde more slowly than Comparative Sample 1.

[2] = Assessment of hydrolysis rate at pH 3.0 (acetaldehyde release, UV absorbance at 276 nm); format: physicochemical; conditions: pH 3.0 buffer
Description: Instant beverage applications require rapid hydrolysis of the precursor molecules in order to rapidly release acetaldehyde. Because such beverages might be consumed immediately upon preparation, it is desired for the release to be as rapid as possible.
A pH 3.0 buffer solution was prepared by adding 16.43 g citric acid (CAS 77-92-9) and 4.26 g disodium citrate (CAS 144-33-2) to 1 L of deionized water. Aliquots of the Example 1-2 preparations were added to the buffer solution within a Distek 2100B USP 2 dissolution system stirring at 200 rpm. The concentration of acetaldehyde in solution was monitored as a function of time using a UV/V is spectrometer probe which measured absorbance at 276 nm every 1 second. Results for comparative samples were taken from work by Gassenmeier et al..

SMILES | t50 ([1]; limonene emulsion) [min] | t50 at pH 8.0 [1] | Rate of acetaldehyde release compared with comparative samples [2] | Increase in absorbance at 276 nm (release of acetaldehyde) ([1]; limonene emulsion, over 1 hour)
CCOC(C)OC(C)=O (centres unmarked) [Comparative Sample 1, 1-ethoxyethyl acetate, reference compound] | 2.1 | 2.1 min | – | –
C=CC1(C)CCC(C(C)(C)OC(C)OCC)O1 (centres unmarked) [Example 1, 5-(2-(1-ethoxyethoxy)propan-2-yl)-2-methyl-2-vinyltetrahydrofuran] | – | >>1 hour | released acetaldehyde faster than Comparative Samples 2-5 | no measurable increase in absorbance over 1 hour
